Assay results as given in PubChem BioAssay AID2384 (Southern Research Specialized Biocontainment Screening …, 2010).

Tested on: S. typhi GFP reporter counter-screen, fluorescence, 4 h
Experiment: inhibitors in S. typhi counter-screen strain, dose response, counter-screen for PhoP regulon inhibitor project, fluorescence, 4 h (AID 2384)

| SMILES | IC50 [µM] |
| --- | --- |
| O=[N+]([O-])c1ccc(O)c(/C=N/Nc2ccccn2)c1 | 9.31 |
| O=C(N/N=C/c1c(O)ccc2ccccc12)c1ccc(CO)nc1 | 81.7 |
| N=c1n(CCN2CCCCC2)c2ccccc2n1CC(O)COc1ccccc1 (stereo not drawn) | 29.7 |
| O=c1[nH]c(-c2ccccn2)nc(C(F)(F)F)c1Br | 51.3 |
| O=C(N/N=C/c1cc([N+](=O)[O-])ccc1O)C(O)(c1ccccc1)c1ccccc1 | 54.9 |
| CC(C(=O)NC1C=CS(=O)(=O)C1)N1C(=O)/C(=C/c2ccc(Cl)cc2)SC1=S (stereo not drawn) | 30.3 |
| COc1cccc(/C=N\NC(=O)Cn2nnc3ccccc32)c1O | 94.6 |
| O=CN/N=C/c1c(O)ccc2ccccc12 | 33.1 |
| CCOC(=O)C1=C(O)c2ccccc2C(=O)/C1=C\c1ccc(C)cc1 | 137 |
| CCCCc1c(O)nc(SCC(=O)Nc2ccc3c(c2)CCC3)[nH]c1=O | 112 |
| COc1ccc2nc(N(CCN(C)C)C(=O)/C=C/c3cccs3)sc2c1 | 65.8 |
| Cc1cc(NS(=O)(=O)c2ccc(NC(=O)Nc3cccc(Cl)c3)cc2)no1 | 120 |
| O=C(Nc1nccs1)c1ccc(Cl)cc1[N+](=O)[O-] | 97.6 |
| N=c1c2c(n(Cc3ccc(Cl)c(Cl)c3)c3c1CCC3)CCCC2 | 31.1 |
| N#C/C(=C\c1ccc(O)c(O)c1)C(=O)NCc1ccccc1 | 132 |
| Cc1cc(=O)[nH]c(-n2nc(C)cc2C)n1 | 68.8 |
| CC1(C)N=C(N)NC(Nc2cccc(Br)c2)=N1 | 72.5 |
| O=C1CN(/N=C/c2ccc([N+](=O)[O-])o2)C(=O)N1 | 41.6 |
| CN1CCN(C2=Cc3ccccc3Sc3cc(F)ccc32)CC1 | 46.7 |
| CN1CCN(C2Cc3ccc(Cl)cc3Sc3ccc(F)cc32)CC1 (stereo not drawn) | 19.9 |
| Cc1cc([N+](=O)[O-])nn1CC(=O)N/N=C/c1ccccc1O | 35.3 |

| SMILES | IC50 [µM] |
| --- | --- |
| O=C(CN1C2=NCCCN2c2ccccc21)c1ccc(Br)s1 | 40.2 |
| Nc1nonc1C(=O)N/N=C/c1cc(Br)ccc1O | 14 |
| COc1ccc(CNCC(O)COc2ccc(C(C)(C)c3ccccc3)cc2)cc1 (stereo not drawn) | 20.4 |
| O=[N+]([O-])c1cc(F)c2cccnc2c1O | 7.36 |
| Cc1ccc(OCC(O)Cn2c(=N)n(CCN3CCCCC3)c3ccccc32)cc1 (stereo not drawn) | 13.4 |
| O=C(Nc1cccc(Br)c1)c1cc2ccccc2o1 | 83.3 |
| NS(=O)(=O)OCCCc1ccc(C(F)(F)F)cc1 | 145 |
| CCCCCCCC(=O)N/N=C/c1ccc([N+](=O)[O-])o1 | 40.2 |
| CNC[C@@H](Cc1ccccc1)NC[C@@H](CC1CCCCC1)NCCCc1ccccc1 | 19.8 |
| Cc1cc(N=Nc2ccccc2)c(NCC(O)C(O)C(O)CO)cc1C (stereo not drawn) | 144 |
| Cc1ccc(-c2csc(NC(=O)C[n+]3cc(-c4ccccc4)n4c3CCC4)n2)cc1 | 19.3 |
| O=C(NC(=S)NNC(=O)c1cnccn1)c1ccc(F)cc1 | 24.4 |
| CCCCCCCCCCOC(=O)Cn1c(COc2cccc(C)c2)[n+](C)c2ccccc21 | 9.7 |
| O=C1NCCN1c1ncc([N+](=O)[O-])s1 | 28.2 |
| CC(Nc1nc(N2CCCC2)nc2ccccc12)c1ccccc1 (stereo not drawn) | 76 |
| O=C(Nc1ccc(Cl)cc1)Nc1ccc2c(c1)N1CCN=C1S2 | 76.3 |
| Cc1cc(C)c(OCCCCNCc2ccccc2)c(Cl)c1 | 61.3 |
| O=C(N/N=C/c1cc(Cl)ccc1O)c1ccncc1 | 17.3 |
| CCCCOc1ccc(CSC(=N)N)cc1Cl | 19.1 |
| Cc1nonc1C(=O)N/N=C/c1ccc([N+](=O)[O-])o1 | 51.9 |
| CN(C)CCOCCOc1ccc(Cl)c2ccccc12 | 41.1 |

| SMILES | IC50 [µM] |
| --- | --- |
| Oc1ccccc1C(Nc1nccs1)c1ccc2cccnc2c1O (stereo not drawn) | 18.6 |
| NCCCC[C@H]1CN=C(N)N1CCC12CC3CC(CC(C3)C1)C2 | 86.4 |
| O=[N+]([O-])c1ccc(O)c2ncccc12 | 0.79 |
| Cc1ccc(OCC(=O)N/N=C/c2ccc([N+](=O)[O-])o2)cc1 | 28.1 |
| CCn1cc(C(=O)O)c(=O)c2cc(F)c(N3CCN(C(=S)NC(=O)c4ccccc4)CC3)cc21 | 78.2 |
| NC1=NC[C@@H](Cc2ccc(O)cc2)N1CCCCC1CCCCC1 | 14.8 |
| COc1c(N2CCN[C@H](C)C2)c(F)cc2c(=O)c(C(=O)O)cn(C3CC3)c12 | 4.98 |
| CCNC(=O)Oc1ccc[nH]c1=O | 53.8 |
| CCN1CCCC1CNC(=O)C1CCN(Cc2nc(-c3cccc(Br)c3)oc2C)CC1 (stereo not drawn) | 33.3 |
| Cc1nc2ccccn2c1C(=O)N/N=C/c1ccc([N+](=O)[O-])o1 | 42.6 |
| O=C(O)c1csc(-c2ccc(Cl)cc2)n1 | 120 |
| CN(C)CCCN1c2ccccc2Sc2ccc(C(F)(F)F)cc21 | 103 |
| CC1COc2c(N3CCN(C)CC3)c(F)cc3c(=O)c(C(=O)O)cn1c23 (stereo not drawn) | 1.73 |
| Cc1ccc(CNCCC2=CCCCC2)cc1 | 70.7 |
| COc1ccc(C(=O)NC(=S)NNC(=O)c2cccc(C)c2)cc1 | 48.8 |
| O=[N+]([O-])c1ccc(N2CCNCC2)cc1NCc1cccnc1 | 73.8 |
| CCOc1ccc(OCCSc2nc(C)cc(=O)[nH]2)cc1 | 149 |
| NC(N)=N/N=C/c1ccc(OCc2ccc(Cl)cc2Cl)cc1 | 10.3 |
| Cc1cc(C)n(-c2nc(NCCN(C)C)c3c4c(sc3n2)CCCC4)n1 | 37.9 |
| CCn1cc(C(=O)NCC(C)C)c(=O)c2cc(F)c(N3CCN(C)CC3)cc21 | 64.4 |
| CC[C@H]1OC(=O)[C@H](C)[C@@H](O[C@H]2C[C@@](C)(OC)[C@@H](O)[C@H](C)O2)[C@H](C)[C@@H](O[C@@H]2O[C@H](C)C[C@H](N(C)C)[C@H]2O)[C@](C)(OC)C[C@@H](C)C(=O)[C@H](C)[C@@H](O)[C@]1(C)O | 29.7 |

| SMILES | IC50 [µM] |
| --- | --- |
| Oc1ccc(C2NCc3ccccc3-n3cccc32)cc1Cl (stereo not drawn) | 89 |
| CC(=O)NC(c1cccc([N+](=O)[O-])c1)c1ccc2cccnc2c1O (stereo not drawn) | 101 |
| Oc1ccccc1Nc1nc(NCc2ccco2)c2ccccc2n1 | 50.9 |
| O=C(CC(=O)c1ccccc1O)c1cccc(F)c1 | 28.9 |
| C=CC1=C(C(=O)O)N2C(=O)[C@@H](NC(=O)/C(=N\O)c3csc(N)n3)[C@H]2SC1 (stereo in doubt) | 15.4 |
| Clc1ccc(OCCCN2CCCC2)cc1Cl | 28.3 |
| Cc1[nH]c2ccc(OC(F)(F)F)cc2c1CCNCc1ccc(Cl)cc1 | 20.5 |
| O=C(N/N=C/C1CC=CCC1)c1cc(Br)ccc1O (stereo not drawn) | 123 |
| C[n+]1c2n(c3ccccc31)N=C(c1ccc(-c3ccccc3)cc1)CS2 | 26.4 |
| CCCCCC(=O)NNC(=S)NC(C)=O | 29.1 |
| COc1ccc2c(c1OC)C(=O)N(c1ccc(C)cc1)C2=O | 105 |
| COc1cc(C(=O)N/N=C/c2ccc(OC(=O)c3cccc(C)c3)c(OC)c2)ccc1O | 108 |
| C#CCOCCOCCOCCNc1nc(N2CCN(C(=O)CCCCCCCCCCNC(=O)[C@H](CCCCN)n3cc(C)nn3)CC2)nc(N2CCN(C(=O)CCCCCCCCCCNC(=O)[C@@H]([C@H](C)CC)n3cc(CCCCCN)nn3)CC2)n1 | 20.4 |
| COc1ccccc1C(C[N+](=O)[O-])c1c(N)n(C)c(=O)n(C)c1=O (stereo not drawn) | 38.5 |
| CCCN(CCC)CCNC(=O)C1CCN(Cc2nc(-c3ccc(Cl)cc3)oc2C)CC1 | 57.1 |
| Clc1ccc(CN2C3=NCCN3c3ccccc32)cc1 | 42.8 |
| Oc1ccc(C[C@H]2CNCCN2CCCCC2CCCCC2)cc1 | 70.5 |
| NC(=O)c1ccc(N=C2C(=O)Nc3ccc([N+](=O)[O-])cc32)cc1 | 72.8 |
| Nc1cc(=O)[nH]c(=S)n1-c1cccc(C(F)(F)F)c1 | 145 |
| Cc1ccc(C(=O)N/N=C\c2ccc([N+](=O)[O-])s2)cn1 | 19.8 |
